These results are taken from PubChem BioAssay AID179 (DTP/NCI, 2004).

The test system of the test is CEM cells HIV-1 protection, formazan growth assay. As to the kind of experiment: NCI AIDS Antiviral Assay. To be noted: for IC50: measured here: growth of uninfected CEM cells. In outline: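 Human CEM cells, uninfected and HIV-1-infected, exposed to five drug concentrations; growth measured by soluble formazan assay and scored as percent protection from infection, with protecting compounds retested.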

Structures can show the parent of a compound that is named as a salt. Calls of active or inactive are those of the source.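 How the source made its calls: active means compounds giving half or more protection of infected cells from virus-caused growth loss, again on retest; inactive means the rest.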 Where a SMILES comes first, the peptide text is derived from it. The star is where a group is joined. Tfa = O=C(C(F)(F)F)*

`O=C(CCCN1CCC2(CC1)C(=O)NCN2c1ccccc1)c1ccccc1`: the EC50 (as a rule, the concentration at which the effect is half-maximal) was > 200 µM and the IC50 (usually the midpoint of a concentration-inhibition curve) amounted to 34.7 µM.

As to `O=C(NO)NCCCl`, the EC50 was > 200 µM and the IC50 is > 200 µM.

On to `CN1C(C(=O)Nc2nccs2)=C(O)c2ccccc2S1(=O)=O`, for which the EC50 was > 200 µM and the IC50 was 191 µM.

Take `C=C1C(OO)O[C@@H]2O[C@@]3(C)CC[C@H]4[C@H](C)CC[C@@H]1[C@@]24O3` (some centres undefined): the EC50 was > 200 µM and the IC50 was 27.5 µM.

As for `N#CCC(O)CC#N`, the result was inactive.

`COc1ccc(-c2sc(/N=C/c3ccc(-c4ccccc4)cc3)c(C#N)c2C)cc1OC`: the EC50 is > 200 µM and the IC50 worked out at 30.2 µM.

Consider `CC12OC(=O)C(C#N)C1(C)C1C(=O)CCCC12` (centres undefined), for which the outcome was inactive.

For the molecule `O=c1ccn(C2SC(CO)CC2F)c(=O)[nH]1` (centres undefined), the EC50 was > 25.1 µM and the 50% inhibitory concentration (IC50) is > 25.1 µM.

In the case of `O=C(O)CC(NC(=O)C(F)(F)F)C(=O)NC(Cc1ccc(O)cc1)C(=O)O` (stereo not drawn) (Tfa-Asp-Tyr-OH; configuration not given here), the EC50 was > 200 µM and the 50% inhibitory concentration (IC50) is > 200 µM.

Consider `O=C(CC1(O)C(=O)Nc2c(Cl)cc(Cl)cc21)c1ccc([N+](=O)[O-])cc1` (centres undefined), for which the EC50 is > 178 µM and the IC50 came out at 93.3 µM.

Take `CCCCCC=C(c1ccc(OC)c(S(=O)(=O)N(C)C)c1)c1ccc(OC)c(S(=O)(=O)N(C)C)c1`: the EC50 was > 35.5 µM and the concentration for half-maximal inhibition (IC50) is > 35.5 µM.

Consider `CCCCCCCCCCCCCCCCOCC(COC1OC(CO)C(O)C(O)C1O)OCCCCCCCCCCCCCCCC` (centres undefined), for which the EC50 was > 19.5 µM.

Take `CC(C)n1cc(C(C)(C)C)nc1SSc1nc(C(C)(C)C)cn1C(C)C`: the EC50 is > 200 µM and the IC50 was > 200 µM.

As to `COc1cc(/C=C2\CCC(C)/C(=C\c3cc(OC)c(OC)c(OC)c3)C2=O)cc(OC)c1OC` (centres undefined), the EC50 is > 200 µM and the 50% inhibitory concentration (IC50) is 7.24 µM.

Take `Cc1cc(S(=O)(=O)Nc2nnc3cnc4ccccc4n23)c(S)cc1Cl`: the EC50 was 89.1 µM and the IC50 came out at 339 µM.

Regarding `CCOC(=O)c1cnc2n(c1=O)[C@H]1CCCC[C@@H]1N2`, the EC50 is > 200 µM and the concentration for half-maximal inhibition (IC50) was > 200 µM.

Consider `COc1ccc2nc3ccccc3c(NCCCN(C)CCCl)c2c1`, for which the EC50 was > 200 µM and the concentration for half-maximal inhibition (IC50) stood at 0.501 µM.

Take `Cc1cccc(NC(=O)/C(=N\NC(C)(C)C)C2NC(=S)NC2=O)c1C` (centres undefined): the EC50 was > 72.4 µM and the IC50 is > 72.4 µM.

Consider `COC1=C(C(=O)OC(C)(C)C)[C@]2(C)C(C(=O)OC(C)(C)C)C(OC)=C(C(=O)OC(C)(C)C)[C@]2(C)C1C(=O)OC(C)(C)C` (some centres undefined), for which the result was inactive.

Regarding `O=Cc1ccccc1OCCCC[P+](c1ccccc1)(c1ccccc1)c1ccccc1`, the EC50 is > 200 µM and the IC50 turned out to be 2.82 µM.

In the case of `N#Cc1nc(Nc2ccc(Cl)cc2)sc1N`, the EC50 was > 525 µM and the concentration for half-maximal inhibition (IC50) turned out to be 9.77 µM.

For `O=C(NS(=O)(=O)Nc1ccc(Cl)cc1)OCc1ccc(Cl)cc1Cl`, the EC50 is > 200 µM and the IC50 turned out to be 34.7 µM.

Consider `CC(=O)NC(CC(C)C(=O)O)(C(=O)O)C(=O)O` (centres undefined), for which the EC50 was > 200 µM and the IC50 was > 200 µM.

Regarding `CC(C)(NO)/C(=N\O)c1ccccc1`, the EC50 was > 200 µM and the IC50 was > 200 µM.

For `CN(CCc1ccccn1)C(=S)N/N=C(\c1ccccc1)c1ccccn1`, the EC50 was > 0.2 µM and the IC50 amounted to 0.0132 µM.

With `CC(C)(C)[Si](C)(C)OCC1OC(n2ccc(N)nc2=O)C(O[Si](C)(C)C(C)(C)C)C1O[Si](C)(C)C(C)(C)C` (centres undefined), the EC50 is > 200 µM and the IC50 stood at 10.2 µM.

In the case of `N#C/C(=C\c1ccc2ccccc2c1)c1ccccc1`, the EC50 is > 14.8 µM and the 50% inhibitory concentration (IC50) is > 14.8 µM.

As for `COC(=O)CCC1=CCC2(SC)C(=O)Nc3cccc1c32` (centres undefined), the EC50 was > 200 µM and the IC50 was > 200 µM.

On to `NC(=O)c1sc2nc3ccccc3n2c1N`, for which the EC50 was > 200 µM and the IC50 is > 200 µM.

In the case of `CCNC(=S)N/N=C/c1cc(OC)ccc1O`, the EC50 is > 200 µM and the IC50 came out at 107 µM.

Take `NC(=S)C1=C(N)Oc2c(c(=O)oc3ccccc23)C1c1ccc(Br)cc1` (centres undefined): the EC50 is > 200 µM and the 50% inhibitory concentration (IC50) worked out at 126 µM.

With `N#C/C(=C/c1ccc(Cl)cc1)c1ccc(Cl)cc1`, the EC50 is > 200 µM and the IC50 came to 195 µM.

Turning to `O=C(NC/C(Cl)=C/Cl)Nc1cccc2c1CCCC2`, the EC50 is > 200 µM and the half-maximal inhibitory concentration (IC50) came out at 50.1 µM.

On to `CC(=O)OC[C@@H]1[C@H]2CC(=O)O[C@H]2C[C@H]1OC(C)=O`, for which the outcome was inactive.

With `Cc1[cH-]c(=O)n(-c2ccccc2)n1.[Au+].[Au].c1ccc([PH+](c2ccccc2)c2ccccc2)cc1.c1ccc([PH+](c2ccccc2)c2ccccc2)cc1`, the EC50 is > 3.47 µM and the IC50 is > 3.47 µM.

On to `N#CC(C#N)=Cc1cccc([N+](=O)[O-])c1`, for which the EC50 was > 178 µM and the IC50 worked out at 15.5 µM.

`N=c1c2ccccc2sc2nc3ccccc3n12`: the EC50 is > 52.5 µM and the IC50 was > 52.5 µM.

In the case of `COc1cccc(C2c3cc4c(cc3OC(C)(O)C2C)OCO4)c1O` (centres undefined), the EC50 is > 200 µM and the half-inhibitory concentration (IC50) is 0.646 µM.

Take `COc1cc2ccc3c(c2cc1OC)CCc1cn[nH]c1-3`: the EC50 is > 9.77 µM and the IC50 was > 9.77 µM.

In the case of `COc1cc2c(cc1OC)[N+]1(C)CCC3OCCC4C[N+]5(C)CCC26C5CC4C3C61` (centres undefined), the EC50 is > 372 µM and the half-maximal inhibitory concentration (IC50) was > 372 µM.

For the molecule `COc1ccc(OC)c(/C=C/c2ccnc3ccccc23)c1`, the EC50 is 0.0631 µM and the 50% inhibitory concentration (IC50) came to 1.29 µM.

`CCOC(=O)Cn1c(=O)c2nc(SC)sc2n(CC)c1=S`: the outcome was inactive.

`CCC(=O)c1c(CC)ccc2ccccc12`: the EC50 was > 200 µM and the half-inhibitory concentration (IC50) amounted to 105 µM.

With `CCC[CH2][Sn]1([CH2]CCC)[O]C(=O)c2cccc(OC)c2[O]1`, the outcome was inactive.

Take `O=C(Nc1cccc(NC(=O)C(=O)C2CCC3=C(Sc4ccccc4N3)C2=O)n1)C(=O)C1CCC2=C(Sc3ccccc3N2)C1=O` (centres undefined): the EC50 was > 75.9 µM and the IC50 amounted to 63.1 µM.

In the case of `N#Cc1ccc(Oc2cccc(N)c2)cc1C#N`, the EC50 is > 214 µM and the half-inhibitory concentration (IC50) was > 214 µM.

Consider `O=C(Nc1ccc(Cl)cc1)C(=O)C(C(=O)c1ccccc1-c1ccccc1)C1OC(=O)c2ccccc21` (centres undefined), for which the EC50 is > 70.8 µM and the IC50 was determined as 13.2 µM.

As for `Cc1sc2nc3n(c(=O)c2c1C)N=CN(c1ccc(F)cc1)C3`, the EC50 is 30.9 µM and the 50% inhibitory concentration (IC50) is > 100 µM.

In the case of `O=C1CN(c2cccc(Cl)c2)C(=O)CN1NCNN1CC(=O)N(c2cccc(Cl)c2)CC1=O`, the EC50 was > 200 µM and the IC50 was > 200 µM.

For `O=C(NCCCN1CCN(CCCNC(=O)c2ccc(N=Nc3ccccc3)cc2)CC1)c1ccc(N=Nc2ccccc2)cc1`, the EC50 was > 100 µM and the IC50 worked out at 53.7 µM.

Turning to `CC1CN=C(N(Cc2ccccc2)C(=O)Nc2ccc(Cl)c(Cl)c2)S1` (centres undefined), the EC50 is > 200 µM and the IC50 worked out at 67.6 µM.

With `CN1c2ccccc2C(=O)Nc2cnc(Cl)nc21`, the EC50 is > 200 µM and the half-maximal inhibitory concentration (IC50) was > 200 µM.

For the molecule `COc1nc(NC2OCC(O)C(O)C2O)cc(=O)n1C` (centres undefined), the result was inactive.

Regarding `O=P(OC1=CCCCC1)(c1ccccc1)c1ccccc1`, the EC50 is > 200 µM and the IC50 was 81.3 µM.

On to `CCCCc1ccc(Nc2ncc3ncn(COCCO)c3n2)cc1`, for which the EC50 was > 200 µM and the IC50 was 51.3 µM.

For the molecule `O=[N+]([O-])c1cc(Cl)ccc1S(=O)(=O)N1CCCc2cc(Cl)ccc21`, the EC50 is > 200 µM and the IC50 was determined as 30.2 µM.

Consider `CCOP(=O)(OCC)C(NC(=O)OCC(Cl)(Cl)Cl)n1nnc(C(=O)OC)c1C(=O)OC` (centres undefined), for which the EC50 was > 200 µM and the half-maximal inhibitory concentration (IC50) is > 200 µM.

For `COc1cc(CN=c2nc(N(C)C)ss2)cc(OC)c1OC`, the EC50 is > 100 µM and the half-inhibitory concentration (IC50) was determined as 6.92 µM.

As to `CN(C)c1ccc(/C=N/N(Cc2ccccc2)c2ccccc2)cc1`, the EC50 was > 6.03 µM and the 50% inhibitory concentration (IC50) is > 6.03 µM.

With `COC1(OC)C2(Cl)C(Cl)=C(Cl)C1(Cl)C1C(=O)C=CC(=O)C12` (centres undefined), the EC50 is > 60.3 µM and the IC50 is 25.1 µM.

Consider `CC(C)(C)O/N=C/c1cc(NC(=S)c2ccsc2)ccc1Cl`, for which the concentration for a half-maximal effect (EC50) is 2.14 µM and the IC50 came out at 9.55 µM.

Take `c1ccc(C2OCCO2)c(OCCOc2cc(OCCOc3ccccc3C3OCCO3)c(OCCOc3ccccc3C3OCCO3)cc2OCCOc2ccccc2C2OCCO2)c1`: the EC50 is > 7.94 µM and the half-inhibitory concentration (IC50) is > 7.94 µM.

In the case of `O=C(Nc1ccc(/C=C/c2ccc(NC(=O)c3ccc4cccnc4c3O)cc2S(=O)(=O)O)c(S(=O)(=O)O)c1)c1ccc2cccnc2c1O`, the EC50 was > 100 µM and the 50% inhibitory concentration (IC50) is 60.3 µM.

On to `COc1ccc(N=C/C=C/Nc2ccc(OC)cc2)cc1`, for which the EC50 was > 200 µM and the 50% inhibitory concentration (IC50) stood at 7.41 µM.

With `C=CC(=O)N1CN(C(=O)C=C)CN(C(=O)C=C)C1`, the EC50 is > 200 µM and the half-inhibitory concentration (IC50) turned out to be 1.15 µM.

`CSc1nc(-c2ccc(Cl)cc2)c(C#N)c(=O)[nH]1`: the outcome was inactive.

As to `O=C(O)c1ccc(CS(=O)(=O)c2ccccc2)c([N+](=O)[O-])c1`, the EC50 is > 776 µM and the 50% inhibitory concentration (IC50) worked out at 575 µM.

With `C1CN(C23OC4(N5CCOCC5)C5C6CC(C7C6C4C72)C53)CCO1` (centres undefined), the EC50 was > 200 µM and the IC50 was > 200 µM.

On to `CN1NC(c2ccccc2)=C(C#N)C(=O)CC1c1ccccc1` (centres undefined), for which the EC50 is > 200 µM and the IC50 stood at 93.3 µM.

For `S=C1NC2=C(CSC/C2=C\c2cccc(Br)c2)C(c2cccc(Br)c2)N1` (centres undefined), the EC50 was > 200 µM and the half-maximal inhibitory concentration (IC50) was determined as 19.5 µM.

With `COc1cc2c(cc1O)C=NCC2`, the outcome was inactive.

As to `COc1ccccc1N=NC(C(=O)c1ccccc1)C(=O)c1ccccc1`, the EC50 is > 52.5 µM and the concentration for half-maximal inhibition (IC50) came to 0.513 µM.
